Source: patent publication US5389616A, “Amino acid derivatives” (Hoffman-LaRoche Inc., priority 1988, dated 1995)

The molecules below were run against T1, human renin (Homo sapiens, UniProt P00797) (assay: In vitro test with pure human renin). Settings: human tetradecapeptide renin substrate (hTD), pH 7.4, incubated 3 hours at 37° C. or 4° C., angiotensin I production measured via RIA.
T1 sequence (P00797 67-406): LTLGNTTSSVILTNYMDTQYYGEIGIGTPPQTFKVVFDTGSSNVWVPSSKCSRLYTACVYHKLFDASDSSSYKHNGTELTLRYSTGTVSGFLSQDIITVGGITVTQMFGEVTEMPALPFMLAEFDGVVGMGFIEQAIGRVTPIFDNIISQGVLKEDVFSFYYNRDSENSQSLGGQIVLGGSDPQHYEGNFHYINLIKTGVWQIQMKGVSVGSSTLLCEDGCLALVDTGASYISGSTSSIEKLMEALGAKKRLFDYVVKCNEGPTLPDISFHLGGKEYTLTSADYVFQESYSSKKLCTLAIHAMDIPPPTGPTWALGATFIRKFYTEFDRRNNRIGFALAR
Assay type: biochemical
Experimental: In vitro test with pure human renin
The test is carried out in Eppendorf test tubes. The incubation mixture consists of (1) 100μl of human renin in buffer A (0.1M sodium phosphate solution, pH 7.4, containing 0.1% bovine serum albumin, 0.1% sodium azide and 1 mM ethylenediaminetetraacetic acid), sufficient for a renin activity of 2--3 ng of angiotensin I/ml/hr.; (2) 145 μl of buffer A; (3) 30 μl of 10 μM human tetradecapeptide renin substrate (hTD) in 10 mM hydrochloric acid; (4) 15 μl of dimethyl sulphoxide with or without inhibitor and (5) 10 μl of a 0.03 molar solution of hydroxyquinoline sulphate in water.
The samples are incubated for 3 hours at 37° C. or 4° C. in triplicate. 2 ×100 μl samples per experimental test tube are used in order to measure the production of angiotensin I via RIA (standard radioimmunoassay; clinical assay solid phase kit). Cross reactivities of the antibody used in the RIA are: angiotensin I 100%; angiotensin II 0.0013%; hTD (angiotensin I-Val-Ile-His-Ser-OH) 0.09%. The production of angiotensin I is determined by the difference between the experiment at 37° C. and that at 4° C.
The following controls are carried out:
(a) Incubation of hTD samples without renin and without inhibitor at 37° C. and 4° C. The difference between these two values gives the base value of angiotensin I production.
(b) Incubation of hTD samples with renin, but without inhibitor at 37° C. and 4° C. The difference between these values gives the maximal-value of angiotensin I production.
In each sample the base value of the angiotensin I production is subtracted from the angiotensin I production which is determined. The difference between the maximal value and the base value gives the value of the maximal substrate hydrolysis (=100%) by renin.
The results are given as IC50 values which denote that concentration of the inhibitor at which the enzymatic activity is inhibited by 50%. The IC50 values are determined from a linear regression curve from a logit-log plot.
An IC50 of 24 nM was found for `CCC(CC)C(O)[C@H](O)[C@H](CC1CCCCC1)NC(=O)[C@H](Cc1c[nH]cn1)NC(=O)[C@@H](CC(=O)C(C)(C)C)Cc1ccccc1` (mixture of isomers) [A, (S)-N-[(1S,2R,3RS)-1-(Cyclohexylmethyl)-4-ethyl-2,3-dihydroxyhexyl]-α-[(R)-α-(3,3-dimethyl-2-oxobutyl)hydrocinnamamido]imidazole-4-propionamide] in this work.
An IC50 of 2 nM was found for `CC(C)[C@H](O)[C@H](O)[C@H](CC1CCCCC1)NC(=O)[C@H](Cc1c[nH]cn1)NC(=O)[C@H](Cc1ccccc1)CS(=O)(=O)C(C)(C)C` [G, (S)-α-[(S)-α-[(t-butylsulphonyl)methyl]hydrocinnamamido]-N-[(1S,2R,3S)-1-(cyclohexylmethyl)-2,3-dihydroxy-4-methylpentyl]imidazole-4-propionamide] in this work.
An IC50 of 2 nM was found for `CC(C)(C)S(=O)(=O)C[C@@H](Cc1ccccc1)C(=O)N[C@@H](Cc1c[nH]cn1)C(=O)N[C@@H](CC1CCCCC1)[C@@H](O)[C@@H](O)C1CCCCC1` [H, (S)-α-[(S)-α-[(t-butylsulphonyl)methyl]hydrocinnamamido]-N-[(1S,2R,3S)-3-cyclohexyl-1-(cyclohexylmethyl)-2,3-dihydroxypropyl]imidazole-4-propionamide] in this work.
An IC50 of 3 nM was found for `CC(C)[C@H](O)[C@H](O)[C@H](CC1CCCCC1)NC(=O)[C@H](Cc1c[nH]cn1)NC(=O)[C@@H](CC(=O)C(C)(C)C)Cc1ccccc1` [C, (S)-N-[(1S,2R,3S)-1-(cyclohexylmethyl)-2,3-dihydroxy-4-methylpentyl]-α-[(R)-α-(3,3-dimethyl-2-oxobutyl)hydrocinnamamido]imidazole-4-propionamide] in this work.
An IC50 of 170 nM was found for `CC(C)(C)S(=O)(=O)C[C@@H](Cc1ccccc1)C(=O)N[C@@H](Cc1c[nH]cn1)C(=O)N[C@@H](CC1CCCCC1)[C@@H](O)[C@H](O)c1ccccc1` [E, (S)-α-[(S)-α-[(t-butylsulphonyl)methyl]hydrocinnamamido]-N-[(1S,2R,3R)-1-(cyclohexylmethyl)-2,3-dihydroxy-3-phenylpropyl]imidazole-4-propionamide] in this work.
An IC50 of 1 nM was found for `CC(C)(C)C(=O)C[C@@H](Cc1ccccc1)C(=O)N[C@@H](Cc1c[nH]cn1)C(=O)N[C@@H](CC1CCCCC1)[C@@H](O)[C@@H](O)C1CCCCC1` [B, (S)-N-[(1S,2R,3S)-3-cyclohexyl-1-(cyclohexylmethyl)-2,3-dihydroxypropyl]-α-[(R)-α-(3,3-dimethyl-2-oxobutyl)-hydrocinnamamido]imidazole-4-propionamide] in this work.
An IC50 of 7 nM was found for `CC(C)(C)S(=O)(=O)C[C@@H](Cc1ccccc1)C(=O)N[C@@H](Cc1c[nH]cn1)C(=O)N[C@@H](CC1CCCCC1)[C@@H](O)[C@@H](O)c1ccccc1` [D, (S)-α-[(S)-α-[(t-butylsulphonyl)methyl]hydrocinnamamido]-N-[(1S,2R,3S)-1-(cyclohexylmethyl)-2,3-dihydroxy-3-phenylpropyl]imidazole-4-propionamide] in this work.
An IC50 of 38 nM was found for `CC(C)(C)C(O)[C@H](O)[C@H](CC1CCCCC1)NC(=O)[C@H](Cc1c[nH]cn1)NC(=O)[C@H](Cc1ccccc1)CS(=O)(=O)C(C)(C)C` (mixture of isomers) [F, (S)-α-[(S)-α-[(t-butylsulphonyl)methyl]hydrocinnamamido]-N-[(1S,2R,3RS)-1-(cyclohexylmethyl)-2,3-dihydroxy-4,4-dimethylpentyl]imidazole-4-propionamide] in this work.
